Series [1] relates to NIDDM patients inadequately controlled on metformin alone. Particulars: for Change in FPG / Change in HbA1c (%) / Change in C peptide / Change in fasting insulin (mU/l): mean ± SEM; for Change in FPG / Change in HbA1c (%): baseline to end of 3-month maintenance period; for Change in C peptide / Change in fasting insulin (mU/l): baseline to end of maintenance treatment period.
Series [2] has as its system patients with type 2 diabetes. The series is described as follows: Flexible meal-related dosing study of repaglinide (mixed vs fixed regimen), open-label parallel group. The series is classed as in vivo, human. Particulars: for Mean fructosamine: 1 mg preprandially, end of 21 days. As for the experimental part: In a single-centre, randomised, open-label, parallel group comparison study it was investigated whether repaglinide given preprandially will maintain glycaemic control in patients who skip a meal (lunch) or have an extra meal (bedtime snack) [mixed regimen] as compared with those who have three regular meals [fixed regimen].
A total of 25 diet-treated patients with type 2 diabetes were enrolled (18 men and 7 women) and given a fixed 1 mg dose of repaglinide preprandially (therapeutic dose range: 0.5-4 mg). After one week of stabilisation patients were randomised to the mixed or fixed regimen for a period of 21 days if blood glucose was >140 mg/dl.

The subject of a further series is NIDDM patients. The series is described as follows: Repaglinide 3 times daily before meals (REP3) vs twice daily (REP2), 4-week double-blind study. To be noted: for Fasting blood glucose (mean ±SEM) after 4 weeks: doubled after 2 weeks.
The nature of series [3]: Half-life (duration of action) of repaglinide. To be noted: in vivo.

Where “and” joins values, the source holds several entries; their conditions need not be identical. Equal values may be shown once. Read-outs that look alike come from different tables or passages of the source.

Consider `CN(C)C(=N)N=C(N)N` [Metformin, metformin], for which, in series [1] (in vivo), the “Change in mean body weight during the study” value was -0.86 ± 0.51 kg, the “Frequency of drug-related adverse events” value worked out at 14.8%, the Gastrointestinal side effects amounted to 7.4% and the “Patients reporting hypoglycemic episodes (number)” value was “none”. In series [1], the “Change in FPG” value was -0.25 mmol/L, the “Change in HbA1c (%)” value is given as −0.33%, the “Change in C peptide” value is 0.02 nmol/L and the “Change in fasting insulin (mU/l)” value amounted to 1.05 ± 1.60 mU/l. In series [1] (listed as MET), the “Change in FPG” value is -0.25 mmol/L and the “Change in HbA1c (%)” value is given as −0.33%.
Consider `CCOc1cc(CC(=O)N[C@@H](CC(C)C)c2ccccc2N2CCCCC2)ccc1C(=O)O` [Repaglinide, (S)-(+)-2-ethoxy-4-[2-[[3-methyl-1-[2-(1-piperidinyl)phenyl]butyl]amino]-2-oxo-ethyl]benzoic acid], for which, in series [2] (37-point blood glucose profile), the “Blood glucose AUC over 24 hours, difference between fixed and mixed groups” value was “not statistically significant”. In addition, the “Hypoglycaemic episodes or serious adverse events” value in series [2] (both regimens) is on record as “no hypoglycaemic episodes or serious adverse events were reported”. In addition, the Mean fructosamine in series [2] (fixed regimen (three regular meals), decreased from 3.10, p<0.05) came to 2.68 mmol/L. Further, the “Tolerability of dose regimens” value in series [2] (in vivo) is listed as “well tolerated”. In series [2] (mixed regimen), the “Blood glucose levels when lunch was omitted” value was “remained stable until next meal”. The Mean fructosamine in series [2] (mixed regimen (skipped lunch or extra bedtime snack), decreased from 3.37, p<0.05) was found to be 2.85 mmol/L. In addition, the “Mean fasting blood glucose (FBG)” value in series [2] (value decreased to, both groups (fixed and mixed regimen)) is on record as “approximately 120 mg/dl”. Also, the “Blood glucose (AUC0-24 h) after 4 weeks” value in the series on NIDDM patients (REP2 (twice daily)) was found to be 8.91 mmol/L. Further, in the series with NIDDM patients (REP2, after 4 weeks), the “Increase in normed AUC0-24 h for plasma insulin” value is 20%. Moreover, the “Fasting blood glucose (mean ±SEM) after 4 weeks” value in the series with NIDDM patients (REP2: 0.5 mg before breakfast + 0.25 mg before dinner, baseline 11.3±0.73, 11.2) is 9.6 mmol/L and 9.6 ± 0.7 mmol/L. Further, the “HbA1c (±SEM) after 4 weeks” value with NIDDM patients (REP2, baseline 7.12±0.24, decrease non-significant) is 6.8% and 6.84±0.34%. Also, in the series with NIDDM patients (REP3 (three times daily before meals), P<0.05 vs REP2), the “Blood glucose (AUC0-24 h) after 4 weeks” value is 7.00 mmol/L. In addition, the “Increase in normed AUC0-24 h for plasma insulin” value with NIDDM patients (REP3, after 4 weeks) is listed as 35-40%. Also, the “Fasting blood glucose (mean ±SEM) after 4 weeks” value in the series with NIDDM patients (REP3: 0.25 mg, before each of three main meals, baseline 11.1±1.24, 11.2) was 8.4 mmol/L and 8.4 ± 1.01 mmol/L. The “HbA1c (±SEM) after 4 weeks” value in the series with NIDDM patients (REP3, baseline 7.51±0.78, P=0.004) was 6.5% and 6.51±0.64%. For the same compound, the “Postprandial blood glucose, lower with REP3 than with REP2” value with NIDDM patients (after 4 weeks, P<0.05) was “about 2.5 mmol/l”. Besides, the “Normed AUC0-24 h for plasma C-peptide” value with NIDDM patients (both groups (REP2, REP3), after 4 weeks) is “increased in both groups”. Moreover, in the series on NIDDM patients (both treatment groups), the “Plasma insulin before the next meal” value is given as “decreased to pre-treatment levels” and the “Plasma insulin during the night in comparison with pre-treatment levels” value is recorded as “no increase”. For the same compound, in the series with NIDDM patients (either treatment group), the Non-serious adverse events result was “mild hypoglycemic episodes and one case of influenza”; the Serious adverse events result is “No serious adverse events”. Moreover, in series [1] (human, in vivo), the “Frequency of drug-related adverse events” value was 25.0%, the Gastrointestinal side effects amounted to 3.6%, the “Patients reporting hypoglycemic episodes (%)” value was 17.9% and the “Patients reporting hypoglycemic episodes (number)” value is given as 3 patients. For the same compound, the “Change in mean body weight during the study” value in series [1] (in vivo) is on record as “+2.98±0.49 kg”. For the same compound, in series [1], the “Change in FPG” value is 0.49 mmol/L, the “Change in HbA1c (%)” value is on record as −0.38%, the “Change in C peptide” value stood at 0.18 nmol/L and the “Change in fasting insulin (mU/l)” value was 4.04 ± 1.56 mU/l. In series [1] (listed as REP), the “Change in FPG” value was 0.49 mmol/L and the “Change in HbA1c (%)” value is −0.38%. For the same compound, the “T½ (short duration of action)” value in series [3] is “one”.
